Reference: ChEMBL document CHEMBL3046897, “Synthesis of 3-{4-[4-dimethylamino-6-(4-methyl-2-oxo-2H-chromen-7-yloxy)-[1,3,5]triazin-2-ylamino]-phenyl}-2-phenyl-5-(4-pyridin-2-yl-piperazin-1-ylmethyl)-thiazolidin-4-one and their biological evaluation” (2012)
Values after ≈ are worked out from the molar mass of the structure shown. Active and inactive are the calls of the source. The rule behind the calls is not given here.

Key:
[1] = test system: Shigella flexneri; test: Antibacterial activity against Shigella flexneri after 24 hr by agar streak dilution method; type: functional
[2] = test system: Proteus vulgaris; test: Antibacterial activity against Proteus vulgaris after 24 hr by agar streak dilution method; type: functional
[3] = test system: Salmonella typhi; test: Antibacterial activity against Salmonella enterica subsp. enterica serovar Typhi after 24 hr by agar streak dilution method; type: functional
[4] = test system: Klebsiella pneumoniae; test: Antibacterial activity against Klebsiella pneumoniae after 24 hr by agar streak dilution method; type: functional
[5] = test system: Candida albicans; test: Antifungal activity against Candida albicans at 100 ug/disk after 48 hr by paper disk diffusion method; type: functional; details: read-out: IZ
[6] = test system: Aspergillus clavatus; test: Antifungal activity against Aspergillus clavatus at 100 ug/disc after 48 hr by paper disk diffusion method; type: functional; details: read-out: IZ
[7] = test system: Aspergillus niger; test: Antifungal activity against Aspergillus niger at 100 ug/disk after 48 hr by paper disk diffusion method; type: functional; details: read-out: IZ
[8] = test system: Aspergillus fumigatus; test: Antifungal activity against Aspergillus fumigatus at 100 ug/ml after 48 hr by agar streak dilution method; type: functional, organism-based
[9] = test system: Candida albicans; test: Antifungal activity against Candida albicans after 48 hr by agar streak dilution method; type: functional
[10] = test system: Aspergillus clavatus; test: Antifungal activity against Aspergillus clavatus after 48 hr by agar streak dilution method; type: functional
[11] = test system: Aspergillus niger; test: Antifungal activity against Aspergillus niger after 48 hr by agar streak dilution method; type: functional
[12] = test system: Pseudomonas aeruginosa; test: Antibacterial activity against Pseudomonas aeruginosa after 24 hr by agar streak dilution method; type: functional
[13] = test system: Escherichia coli; test: Antibacterial activity against Escherichia coli after 24 hr by agar streak dilution method; type: functional
[14] = test system: Shigella flexneri; test: Antibacterial activity against Shigella flexneri at 100 ug/disc after 24 hr by paper disk diffusion method; type: functional; details: read-out: IZ
[15] = test system: Proteus vulgaris; test: Antibacterial activity against Proteus vulgaris at 100 ug/disk after 24 hr by paper disk diffusion method; type: functional; details: read-out: IZ
[16] = test system: Salmonella typhi; test: Antibacterial activity against Salmonella enterica subsp. enterica serovar Typhi at 100 ug/disk after 24 hr by paper disk diffusion method; type: functional; details: read-out: IZ
[17] = test system: Klebsiella pneumoniae; test: Antibacterial activity against Klebsiella pneumoniae at 100 ug/disk after 24 hr by paper disk diffusion method; type: functional; details: read-out: IZ
[18] = test system: Pseudomonas aeruginosa; test: Antibacterial activity against Pseudomonas aeruginosa at 100 ug/disk after 24 hr by paper disk diffusion method; type: functional; details: read-out: IZ
[19] = test system: Escherichia coli; test: Antibacterial activity against Escherichia coli at 100 ug/disk after 24 hr by paper disk diffusion method; type: functional; details: read-out: IZ
[20] = test system: Bacillus subtilis; test: Antibacterial activity against Bacillus subtilis after 24 hr by agar streak dilution method; type: functional
[21] = test system: Staphylococcus aureus; test: Antibacterial activity against Staphylococcus aureus after 24 hr by agar streak dilution method; type: functional
[22] = test system: Bacillus subtilis; test: Antibacterial activity against Bacillus subtilis at 100 ug/disk after 24 hr by paper disk diffusion method; type: functional; details: read-out: IZ
[23] = test system: Staphylococcus aureus; test: Antibacterial activity against Staphylococcus aureus at 100 ug/disc after 24 hr by paper disk diffusion method; type: functional; details: read-out: IZ
[24] = test system: Klebsiella pneumoniae; test: Antibacterial activity against Klebsiella pneumoniae at 100 ug/ml after 24 hr by agar streak dilution method; type: functional, organism-based
[25] = test system: Shigella flexneri; test: Antibacterial activity against Shigella flexneri at 100 ug/ml after 24 hr by agar streak dilution method; type: functional, organism-based
[26] = test system: Proteus vulgaris; test: Antibacterial activity against Proteus vulgaris at 100 ug/ml after 24 hr by agar streak dilution method; type: functional, organism-based
[27] = test system: Candida albicans; test: Antifungal activity against Candida albicans at 100 ug/ml after 48 hr by agar streak dilution method; type: functional, organism-based
[28] = test system: Aspergillus fumigatus; test: Antifungal activity against Aspergillus fumigatus at 100 ug/disc after 48 hr by paper disk diffusion method; type: functional; details: read-out: IZ
[29] = test system: Aspergillus fumigatus; test: Antifungal activity against Aspergillus fumigatus after 48 hr by agar streak dilution method; type: functional
[30] = test system: Pseudomonas aeruginosa; test: Antibacterial activity against Pseudomonas aeruginosa at 100 ug/ml after 24 hr by agar streak dilution method; type: functional, organism-based
[31] = test system: Salmonella typhi; test: Antibacterial activity against Salmonella enterica subsp. enterica serovar Typhi at 100 ug/ml after 24 hr by agar streak dilution method; type: functional, organism-based
[32] = test system: Escherichia coli; test: Antibacterial activity against Escherichia coli at 100 ug/ml after 24 hr by agar streak dilution method; type: functional, organism-based

| Structure (SMILES) | MIC [1] [µg/mL] | MIC [2] [µg/mL] | MIC [3] [µg/mL] | MIC [4] [µg/mL] | zone of inhibition at 100 µg/disc [6] [mm] | zone of inhibition at 100 µg/disc [7] [mm] | MIC [10] [µg/mL] | MIC [11] [µg/mL] | MIC [12] [µg/mL] | MIC [13] [µg/mL] | zone of inhibition at 100 µg/disc [14] [mm] | zone of inhibition at 100 µg/disc [15] [mm] | zone of inhibition at 100 µg/disc [16] [mm] | zone of inhibition at 100 µg/disc [17] [mm] | zone of inhibition at 100 µg/disc [18] [mm] | zone of inhibition at 100 µg/disc [19] [mm] | MIC [20] [µg/mL] | MIC [21] [µg/mL] | zone of inhibition at 100 µg/disc [22] [mm] | zone of inhibition at 100 µg/disc [23] [mm] | other results |
| --- | --- | --- | --- | --- | --- | --- | --- | --- | --- | --- | --- | --- | --- | --- | --- | --- | --- | --- | --- | --- | --- |
| Cc1cc(=O)oc2cc(Oc3nc(Nc4ccc(N5C(=O)CSC5c5ccccc5)cc4)nc(N(C)C)n3)ccc12 (stereo not drawn) | 100 (≈ 176 µM) | 100 (≈ 176 µM) | 100 (≈ 176 µM) | 100 (≈ 176 µM) | 13 | 11 | 100 (≈ 176 µM) | 100 (≈ 176 µM) | 100 (≈ 176 µM) | 100 (≈ 176 µM) | 12 | 10 | 11 | < 10 | 15 | 14 | 100 (≈ 176 µM) | 100 (≈ 176 µM) | 13 | 12 | zone of inhibition at 100 µg/disc [5]: 10 mm; Activity [8]: inactive; MIC [9]: 100 µg/mL (≈ 176 µM) |
| Cc1cc(=O)oc2cc(Oc3nc(Nc4ccc(/N=C/c5ccccc5)cc4)nc(N(C)C)n3)ccc12 | – | – | 100 (≈ 203 µM) | – | < 10 | < 10 | 100 (≈ 203 µM) | 100 (≈ 203 µM) | 100 (≈ 203 µM) | 100 (≈ 203 µM) | – | – | < 10 | – | 12 | < 10 | 100 (≈ 203 µM) | 100 (≈ 203 µM) | 10 | 11 | Activity [24]: inactive; Activity [25]: inactive; Activity [26]: inactive; Activity [27]: inactive; Activity [8]: inactive |
| Cc1cc(=O)oc2cc(Oc3nc(Nc4ccc(/N=C/c5ccccc5Br)cc4)nc(N(C)C)n3)ccc12 | – | 100 (≈ 175 µM) | 100 (≈ 175 µM) | 100 (≈ 175 µM) | 18 | 15 | 50 (≈ 87.5 µM) | 100 (≈ 175 µM) | 50 (≈ 87.5 µM) | 100 (≈ 175 µM) | – | 13 | < 10 | < 10 | 18 | 14 | 50 (≈ 87.5 µM) | 100 (≈ 175 µM) | 16 | 13 | zone of inhibition at 100 µg/disc [5]: 19 mm; zone of inhibition at 100 µg/disc [28]: 20 mm; Activity [25]: inactive; MIC [9]: 50 µg/mL (≈ 87.5 µM); MIC [29]: 25 µg/mL (≈ 43.7 µM) |
| Cc1cc(=O)oc2cc(Oc3nc(Nc4ccc(/N=C/c5ccc([N+](=O)[O-])cc5)cc4)nc(N(C)C)n3)ccc12 | 100 (≈ 186 µM) | – | 100 (≈ 186 µM) | 100 (≈ 186 µM) | 13 | < 10 | 100 (≈ 186 µM) | 100 (≈ 186 µM) | – | 100 (≈ 186 µM) | < 10 | – | 13 | < 10 | – | < 10 | 100 (≈ 186 µM) | 100 (≈ 186 µM) | < 10 | < 10 | Activity [30]: inactive; zone of inhibition at 100 µg/disc [28]: < 10 mm; Activity [26]: inactive; Activity [27]: inactive; MIC [29]: 100 µg/mL (≈ 186 µM) |
| Cc1cc(=O)oc2cc(Oc3nc(Nc4ccc(N5C(=O)CSC5c5ccccc5C(=O)O)cc4)nc(N(C)C)n3)ccc12 (stereo not drawn) | 100 (≈ 164 µM) | 100 (≈ 164 µM) | 100 (≈ 164 µM) | 100 (≈ 164 µM) | 13 | 12 | 100 (≈ 164 µM) | 100 (≈ 164 µM) | 100 (≈ 164 µM) | 100 (≈ 164 µM) | 14 | 11 | < 10 | 12 | 14 | < 10 | 100 (≈ 164 µM) | 100 (≈ 164 µM) | 14 | 16 | zone of inhibition at 100 µg/disc [28]: 10 mm; Activity [27]: inactive; MIC [29]: 100 µg/mL (≈ 164 µM) |
| Cc1cc(=O)oc2cc(Oc3nc(Nc4ccc(/N=C/c5ccccc5C(=O)O)cc4)nc(N(C)C)n3)ccc12 | 100 (≈ 186 µM) | – | – | 100 (≈ 186 µM) | < 10 | 10 | 100 (≈ 186 µM) | 100 (≈ 186 µM) | 100 (≈ 186 µM) | – | 11 | – | – | < 10 | 11 | – | 100 (≈ 186 µM) | 100 (≈ 186 µM) | 11 | 13 | Activity [31]: inactive; Activity [32]: inactive; zone of inhibition at 100 µg/disc [28]: < 10 mm; Activity [26]: inactive; Activity [27]: inactive; MIC [29]: 100 µg/mL (≈ 186 µM) |
| COc1ccc(/C=N/c2ccc(Nc3nc(Oc4ccc5c(C)cc(=O)oc5c4)nc(N(C)C)n3)cc2)cc1OC | 100 (≈ 181 µM) | 100 (≈ 181 µM) | 100 (≈ 181 µM) | – | < 10 | 12 | 100 (≈ 181 µM) | 100 (≈ 181 µM) | 100 (≈ 181 µM) | 100 (≈ 181 µM) | 13 | < 10 | 12 | – | 10 | < 10 | 100 (≈ 181 µM) | 50 (≈ 90.5 µM) | 12 | 16 | Activity [24]: inactive; Activity [27]: inactive; Activity [8]: inactive |
| COc1ccc(C2SCC(=O)N2c2ccc(Nc3nc(Oc4ccc5c(C)cc(=O)oc5c4)nc(N(C)C)n3)cc2)cc1 (stereo not drawn) | 100 (≈ 168 µM) | 50 (≈ 83.8 µM) | 50 (≈ 83.8 µM) | 50 (≈ 83.8 µM) | 16 | 19 | 100 (≈ 168 µM) | 50 (≈ 83.8 µM) | 100 (≈ 168 µM) | 100 (≈ 168 µM) | 13 | 18 | 19 | 17 | 15 | 12 | 100 (≈ 168 µM) | 50 (≈ 83.8 µM) | 16 | 18 | zone of inhibition at 100 µg/disc [5]: 20 mm; zone of inhibition at 100 µg/disc [28]: 17 mm; MIC [9]: 50 µg/mL (≈ 83.8 µM); MIC [29]: 50 µg/mL (≈ 83.8 µM) |
| COc1ccc(C2SCC(=O)N2c2ccc(Nc3nc(Oc4ccc5c(C)cc(=O)oc5c4)nc(N(C)C)n3)cc2)cc1OC (stereo not drawn) | 50 (≈ 79.8 µM) | 100 (≈ 160 µM) | 100 (≈ 160 µM) | 100 (≈ 160 µM) | 13 | 15 | 100 (≈ 160 µM) | 100 (≈ 160 µM) | 100 (≈ 160 µM) | 100 (≈ 160 µM) | 17 | 12 | 14 | < 10 | 12 | 11 | 100 (≈ 160 µM) | 50 (≈ 79.8 µM) | 14 | 17 | zone of inhibition at 100 µg/disc [5]: < 10 mm; zone of inhibition at 100 µg/disc [28]: < 10 mm; MIC [9]: 100 µg/mL (≈ 160 µM); MIC [29]: 100 µg/mL (≈ 160 µM) |
